Results: patent US12263202B2, “Method of treating melanocortin-4 receptor pathway-associated disorders” (CHARITÉ—UNIVERSITÄTSMEDIZIN BERLIN, priority 2015, dated 2025)
“Also recorded” adds a separate entry of the source.

Experiments:
db/db mice = test: Food intake over four hours in db/db mice (leptin receptor deficient); format: in vivo
Procedure: (§1) To determine this, wild-type and db/db mice were exposed to vehicle or varying concentrations of setmelanotide (0.0554 mpk; 0.137 mpk, 0.344 mpk, or 1.37 mpk), and their food intake was measured over four hours.

wild-type mice = test: Food intake over four hours in wild-type mice; format: in vivo
Procedure: as §1

wildtype mice = test: Food intake in wild type mice (comparison to Magel2-null); format: in vivo; settings: 0.1 mg/kg i.p.
Procedure: (§2) Experiments were performed to determine the effect of a MC4R agonist, setmelanotide, on Magel2-null mice. Setmelanotide was evaluated in wild type and Magel2-null mice. Adult mice (N=6 per group) were acclimated to metabolic chambers, and food intake and energy expenditure (kcal/h) were measured over time. Mice were 8 weeks old. […] Vehicle and drug (setmelanotide) were administered intraperitoneally (i.p.) (n=6 for each treatment). A 0.1 mg/kg dose of setmelanotide was injected i.p. before the start of the dark cycle in the mice.
(§3) Food intake (cumulative in grams (g)) through 3 hours post dose and overnight cumulative food intake were assessed. Energy expenditure was also measured after dosing. Post-setmelanotide treatment data were compared to the data from post-vehicle injections in the same groups of mice. Statistical analysis was by two-way ANOVA followed by Bonferroni post-testing.

[1] = cited from earlier work
Magel2-null mice = test: Food intake and energy expenditure in Magel2-null mice (mouse model of PWS); format: in vivo
Procedure: as §2, §3

[2] = system: wild-type obese human patients; test: Weight loss in wild-type obese human patients; format: in vivo; settings: 0.01 mg/kg or 0.015 mg/kg twice daily (BID); after 2 or 4 weeks; placebo-subtracted
Procedure: The effect of MC4R agonist setmelanotide on wild-type obese human patients was assessed. The patients were treated with placebo or setmelanotide twice daily (BID) at 0.01 mg/kg or 0.015 mg/kg. There were 9 patients in each treatment group (6 with setmelanotide and 3 with placebo).
The amount of weight loss was determined after 2 weeks or after 4 weeks of treatment. […] The weight loss among the wild-type obese patients was about 0.6 to about 0.9 kg per week.

POMC deficient patient = test: Phase 2 open label study of setmelanotide in an adult POMC deficient patient with severe obesity and hyperphagia; format: in vivo, human
Procedure: See, e.g., Chen et al. J. Clin. Endocrinol. Metab. 2015; 100:1639-45. The study was an investigator initiated, open label, phase 2, non-randomized proof of concept study (EudraCT No. 2014-002392-28; Clinical Trials Identifier No. NCT02507492) with three parts: pre-study evaluation, main study (about 13 weeks) and after a short interval off drug, a long-term extension phase.
In the pre-study period, baseline examinations were performed, including analysis of metabolic parameters, including OGTT, GnRH test, fasting blood glucose, Leptin measurements as well as bioelectrical impedance analysis (BIA, according standard protocols; Data-in, Nutriguard-MS), indirect calorimetry (CareFusion, VMAX® Encore system), heart rate and blood pressure monitoring (after the first injection and after each dosage escalation blood pressure was measured regularly over 12 hours; in addition, blood was measured at home 3 times daily) as well as a dermatological and psychological examination. All parameters were in the normal range with the exception of elevated fasting insulin reflecting insulin resistance. These measurements were repeated after 13 and 26 weeks of treatment. Baseline examination also included physical examination, e.g., measurement of height and body-weight. Setmelanotide treatment was started at a dose of 0.25 mg subcutaneously (s.c.) once daily. The dose escalated every 1-2 weeks after careful assessment of safety and weight loss. After the first injection and after each dosage escalation, blood pressure was measured regularly over 12 hours. In addition, blood was measured 3 times daily. Setmelanotide injections were given once a day.
After about 90 days of treatment (main study), assessments were repeated, including assessments of metabolic parameters, e.g., blood tests, skin examination, and psychological evaluation. Setmelanotide treatment was ended, and a rapid and large weight gain off-treatment was observed. Subsequently, setmelanotide treatment was continued for another 3 months (extension phase) along with continued assessments (of metabolic parameters). The hunger score was evaluated using a Likert hunger scale from 0 to 10 points (0=no hunger; 10=severe hunger). See, e.g., Sibilia. Psychologicol Topics 19 (2010), 2, 341-354.
Bioelectric Impedance Analysis (BIA) and indirect calorimetric analysis was performed according standard protocols, e.g., as described in Barak et al. JPEN J. Parenter. Enteral Nutr. 27.1(2003):43-6; and Compher et al. J. Am. Diet Assoc.
Statistical analysis: The values of systolic and diastolic blood pressure and heart rate were analyzed with a […].

[3] = higher doses (0.137 mpk, 0.344 mpk, and 1.37 mpk), vs vehicle-treated mice
[4] = after 26 weeks of treatment, listed as MC4R agonist
[5] = after a 13-week treatment vs baseline
[6] = bioelectrical impedance analysis
[7] = off drug after 13 weeks of treatment (three weeks off drug)

Q: For `CC(=O)N[C@@H](CCCNC(=N)N)C(=O)N[C@H]1CSSC[C@@H](C(N)=O)NC(=O)[C@H](Cc2c[nH]c3ccccc23)NC(=O)[C@H](CCCNC(=N)N)NC(=O)[C@@H](Cc2ccccc2)NC(=O)[C@H](Cc2cnc[nH]2)NC(=O)[C@@H](C)NC1=O` [setmelanotide, Ac-Arg-c(Cys-D-Ala-His-D-Phe-Arg-Trp-Cys)-NH2], which “suppression of food intake” value (db/db mice; 0.0544 mpk dose, end of the 4 hour time period) is on record?
A: about 80%

Q: And the “suppression of food intake compared with wildtype mice” value (db/db mice; all concentrations)?
A: more profound suppression of foodintake than wildtype mice

Q: And the food intake (db/db mice; [3])?
A: significantly decreased food intake

Q: What about the “food intake vs vehicle treated mice” value (wild-type mice; 0.0544 mpk dose, 4 hour timepoint) of the same molecule?
A: identical food intake

Q: And the food intake (wild-type mice; 0.0544 mpk dose, at 1 and 2 hours)?
A: Decreased food intake

Q: What about the food intake (wild-type mice; [3]) of the same molecule?
A: significantly decreased food intake

Q: And the food intake (wildtype mice)?
A: retained normal levels of food intake

Q: And the “effect on blood pressure” value ([1]; clinical trials (Chen et al. 2015))?
A: not been shown to adversely affect blood pressure

Q: What about the “effects on sexual activity” value ([1]; in vivo) of the same molecule?
A: only infrequent

Q: And the “signs of increased blood pressure” value ([1]; in vivo)?
A: little, if any

Q: And the tolerability ([1]; in vivo)?
A: generally well-tolerated

Q: And the “increase of energy expenditure” value (Magel2-null mice; 0.1 mg/kg i.p., 3 hours post-dosing, vs vehicle-dosed Magel2-null mice)?
A: 11%

Q: What about the “decrease of spontaneous food intake” value (Magel2-null mice; 0.1 mg/kg i.p., over the first 3 hours, P<0.05) of the same molecule?
A: ~75%

Q: What about the “food intake suppression, duration” value (Magel2-null mice; 0.1 mg/kg i.p., overnight) of the same molecule?
A: persisted throughout the dark cycle

Q: What about the cumulative food intake (Magel2-null mice; 0.1 mg/kg, P<0.05) of the same molecule?
A: statistically significant decrease

Q: And the “sensitivity compared with wildtype mice” value (Magel2-null mice; 0.1 mg/kg, food intake)?
A: much more sensitive than wildtype mice

Q: And the weight loss [2]?
A: 0.6-0.9 kg per week

Q: And the “Likert hunger scale score” value (POMC deficient patient; 1 mg s.c. once daily, scale 0 to 10 (0=no hunger), baseline 9)?
A: 5 points

Q: What about the “rate of weight loss” value (POMC deficient patient; 1.5 mg dose, first treatment phase) of the same molecule?
A: 2-3 kg per week

Q: What about the LDL (POMC deficient patient; after 26 weeks of treatment) of the same molecule?
A: further reduced

Q: And the total cholesterol (POMC deficient patient; after 26 weeks of treatment)?
A: further reduced

Q: And the “total loss of body weight” value (POMC deficient patient; after 26 weeks of treatment)?
A: 35.9 kg

Q: What about the “total loss of body weight, % of initial body weight” value (POMC deficient patient; after 26 weeks of treatment) of the same molecule?
A: 23.2%

Q: And the triglycerides (POMC deficient patient; after 26 weeks of treatment)?
A: further reduced

Q: And the “total loss of body weight” value (POMC deficient patient; [4])?
A: about 36 kg

Q: What about the “total loss of body weight, % of initial body weight” value (POMC deficient patient; [4]) of the same molecule?
A: about 23%

Q: What about the HDL cholesterol (POMC deficient patient; [5]) of the same molecule?
A: did not change

Q: What about the LDL cholesterol (POMC deficient patient; [5]) of the same molecule?
A: reduced

Q: And the total cholesterol (POMC deficient patient; [5])?
A: reduced

Q: And the triglycerides (POMC deficient patient; [5])?
A: did not change

Q: What about the “total weight loss, % of initial body weight” value (POMC deficient patient; after the first 13 weeks of treatment) of the same molecule?
A: 16.7%

Q: And the total weight loss (POMC deficient patient; after the first 13 weeks of treatment, baseline 155 kg)?
A: 25.8 kg

Q: And the BMI (POMC deficient patient; after the first 13 weeks, baseline 49.8)?
A: 41.5 kg/m2

Q: And the end body weight (POMC deficient patient; after the first 13 weeks, baseline 155 kg)?
A: 129.2 kg

Q: And the “BMI SDS” value (POMC deficient patient; after the first 13 weeks, baseline +4.52)?
A: +3.86

Q: And the quality of life (POMC deficient patient; after the initiation of treatment)?
A: improved dramatically

Q: And the “loss of body weight” value (POMC deficient patient; at 86 weeks of treatment)?
A: 60.5 kg

Q: What about the “composition of the reduction of body weight” value (POMC deficient patient; [6]) of the same molecule?
A: mainly due to a loss of body-fat mass

Q: And the lean body mass (POMC deficient patient; [6])?
A: not greatly altered

Q: And the “resting energy expenditure (REE)/kg lean body mass” value (POMC deficient patient; despite severe weight loss)?
A: stayed relatively stable

Q: What about the blood pressure (POMC deficient patient; during all steps of dose escalation) of the same molecule?
A: no increase

Q: What about the “diastolic BP” value (POMC deficient patient; during the study) of the same molecule?
A: significant decreases

Q: What about the “heart rate (HR)” value (POMC deficient patient; during the study) of the same molecule?
A: significant decreases

Q: What about the “systolic BP” value (POMC deficient patient; during the study) of the same molecule?
A: significant decreases

Q: And the “adverse event reported by the patient” value (POMC deficient patient; human, in vivo)?
A: infrequent dry mouth

Q: What about the safety laboratories (POMC deficient patient; human, in vivo) of the same molecule?
A: no changes in safety laboratories of clinical concern

Q: What about the tolerability of treatment (POMC deficient patient; human, in vivo) of the same molecule?
A: well tolerated

Q: What about the changes in hunger (POMC deficient patient; initially, with low dosage) of the same molecule?
A: only little changes

Q: What about the weight loss (POMC deficient patient; initially, with low dosage) of the same molecule?
A: moderate

Q: What about the “Likert hunger score after treatment was stopped” value (POMC deficient patient; [7]) of the same molecule?
A: 7 points

Q: And the “weight regained after treatment was stopped” value (POMC deficient patient; [7])?
A: 4.8 kg

Q: And the “blood glucose values (fasting and after glucose challenge)” value (POMC deficient patient; oral glucose tolerance test, during the study)?
A: remained always in the normal range; also recorded: relatively stable

Q: And the “weight loss per week” value (POMC deficient patient; overall, over the course of 26 weeks of treatment)?
A: 2-2.5 kg per week

Q: What about the “rate of weight loss” value (POMC deficient patient; second treatment phase (1 mg for 4 weeks and 1.5 mg thereafter)) of the same molecule?
A: 1-2 kg per week

Q: What about the “elevated insulin levels / insulin resistance (insulin sensitivity)” value (POMC deficient patient; under setmelanotide treatment) of the same molecule?
A: improved significantly

Q: And the serum leptin concentrations (POMC deficient patient; with loss of body-fat mass)?
A: significant decrease
